{"source": "the supplement of paper PMC13207355", "conditions_in_all_cases": "exposure time: 72 h", "key": {"E34 [1]": {"tested_on": "E34 (patient-derived glioblastoma stem cells of proneural subtype)", "experiment": "phenotypic distance (Euclidean, principal components) from DMSO controls (arbitrary units); higher = stronger morphological change"}, "E13 [2]": {"tested_on": "E13 (patient-derived glioblastoma stem cells of classical subtype)", "experiment": "phenotypic distance (Euclidean, principal components) from DMSO controls (arbitrary units); higher = stronger morphological change"}, "E31 [3]": {"tested_on": "E31 (patient-derived glioblastoma stem cells of proneural subtype)", "experiment": "phenotypic distance (Euclidean, principal components) from DMSO controls (arbitrary units); higher = stronger morphological change"}, "FT3469 [4]": {"tested_on": "FT3469 (normal neural stem cell line)", "experiment": "phenotypic distance (Euclidean, principal components) from DMSO controls (arbitrary units); higher = stronger morphological change"}, "E28 [5]": {"tested_on": "E28 (patient-derived glioblastoma stem cells of classical subtype)", "experiment": "phenotypic distance (Euclidean, principal components) from DMSO controls (arbitrary units); higher = stronger morphological change"}, "E57 [6]": {"tested_on": "E57 (patient-derived glioblastoma stem cells of mesenchymal subtype)", "experiment": "phenotypic distance (Euclidean, principal components) from DMSO controls (arbitrary units); higher = stronger morphological change"}, "E21 [7]": {"tested_on": "E21 (patient-derived glioblastoma stem cells of mesenchymal subtype)", "experiment": "phenotypic distance (Euclidean, principal components) from DMSO controls (arbitrary units); higher = stronger morphological change"}, "E34 [8]": {"tested_on": "E34", "experiment": "surviving fraction (nuclei count normalised to DMSO); higher = more cells surviving (less toxic)"}, "E13 [9]": {"tested_on": "E13", "experiment": "surviving fraction (nuclei count normalised to DMSO); higher = more cells surviving (less toxic)"}, "E31 [10]": {"tested_on": "E31", "experiment": "surviving fraction (nuclei count normalised to DMSO); higher = more cells surviving (less toxic)"}, "FT3469 [11]": {"tested_on": "FT3469", "experiment": "surviving fraction (nuclei count normalised to DMSO); higher = more cells surviving (less toxic)"}, "E28 [12]": {"tested_on": "E28", "experiment": "surviving fraction (nuclei count normalised to DMSO); higher = more cells surviving (less toxic)"}, "E57 [13]": {"tested_on": "E57", "experiment": "surviving fraction (nuclei count normalised to DMSO); higher = more cells surviving (less toxic)"}, "E21 [14]": {"tested_on": "E21", "experiment": "surviving fraction (nuclei count normalised to DMSO); higher = more cells surviving (less toxic)"}}}
{"smiles": "CCN1CCN(C(=O)Cc2ccc(Nc3ncc(F)c(Nc4ccc(C(=O)Nc5ccccc5Cl)cc4)n3)cc2)CC1", "note": "[Aurora-A Inhibitor I]", "values": [{"measurement": "phenotypic distance", "setting": "E34 [1]; 4.1 nM", "value": 0.739}, {"measurement": "phenotypic distance", "setting": "E34 [1]; 12.3 nM", "value": 0.951}, {"measurement": "phenotypic distance", "setting": "E34 [1]; 37 nM", "value": 0.479}, {"measurement": "phenotypic distance", "setting": "E34 [1]; 111.1 nM", "value": 0.728}, {"measurement": "phenotypic distance", "setting": "E34 [1]; 333.3 nM", "value": 0.971}, {"measurement": "phenotypic distance", "setting": "E34 [1]; 1000 nM", "value": 1.96}, {"measurement": "phenotypic distance", "setting": "E34 [1]; 3000 nM", "value": 9.28}, {"measurement": "phenotypic distance", "setting": "E13 [2]; 4.1 nM", "value": 0.68}, {"measurement": "phenotypic distance", "setting": "E13 [2]; 12.3 nM", "value": 0.752}, {"measurement": "phenotypic distance", "setting": "E13 [2]; 37 nM", "value": 1.14}, {"measurement": "phenotypic distance", "setting": "E13 [2]; 111.1 nM", "value": 1.23}, {"measurement": "phenotypic distance", "setting": "E13 [2]; 333.3 nM", "value": 1.57}, {"measurement": "phenotypic distance", "setting": "E13 [2]; 1000 nM", "value": 2.01}, {"measurement": "phenotypic distance", "setting": "E13 [2]; 3000 nM", "value": 2.52}, {"measurement": "phenotypic distance", "setting": "E31 [3]; 4.1 nM", "value": 0.624}, {"measurement": "phenotypic distance", "setting": "E31 [3]; 12.3 nM", "value": 0.904}, {"measurement": "phenotypic distance", "setting": "E31 [3]; 37 nM", "value": 0.48}, {"measurement": "phenotypic distance", "setting": "E31 [3]; 111.1 nM", "value": 0.975}, {"measurement": "phenotypic distance", "setting": "E31 [3]; 333.3 nM", "value": 1.09}, {"measurement": "phenotypic distance", "setting": "E31 [3]; 1000 nM", "value": 6.37}, {"measurement": "phenotypic distance", "setting": "E31 [3]; 3000 nM", "value": 11.8}, {"measurement": "phenotypic distance", "setting": "FT3469 [4]; 4.1 nM", "value": 0.518}, {"measurement": "phenotypic distance", "setting": "FT3469 [4]; 12.3 nM", "value": 0.954}, {"measurement": "phenotypic distance", "setting": "FT3469 [4]; 37 nM", "value": 0.712}, {"measurement": "phenotypic distance", "setting": "FT3469 [4]; 111.1 nM", "value": 0.933}, {"measurement": "phenotypic distance", "setting": "FT3469 [4]; 333.3 nM", "value": 0.835}, {"measurement": "phenotypic distance", "setting": "FT3469 [4]; 1000 nM", "value": 1.89}, {"measurement": "phenotypic distance", "setting": "FT3469 [4]; 3000 nM", "value": 13.2}, {"measurement": "phenotypic distance", "setting": "E28 [5]; 4.1 nM", "value": 0.837}, {"measurement": "phenotypic distance", "setting": "E28 [5]; 12.3 nM", "value": 1.2}, {"measurement": "phenotypic distance", "setting": "E28 [5]; 37 nM", "value": 0.715}, {"measurement": "phenotypic distance", "setting": "E28 [5]; 111.1 nM", "value": 0.655}, {"measurement": "phenotypic distance", "setting": "E28 [5]; 333.3 nM", "value": 1.3}, {"measurement": "phenotypic distance", "setting": "E28 [5]; 1000 nM", "value": 5.35}, {"measurement": "phenotypic distance", "setting": "E28 [5]; 3000 nM", "value": 7.22}, {"measurement": "phenotypic distance", "setting": "E57 [6]; 4.1 nM", "value": 0.556}, {"measurement": "phenotypic distance", "setting": "E57 [6]; 12.3 nM", "value": 1.22}, {"measurement": "phenotypic distance", "setting": "E57 [6]; 37 nM", "value": 0.495}, {"measurement": "phenotypic distance", "setting": "E57 [6]; 111.1 nM", "value": 0.921}, {"measurement": "phenotypic distance", "setting": "E57 [6]; 333.3 nM", "value": 1.17}, {"measurement": "phenotypic distance", "setting": "E57 [6]; 1000 nM", "value": 3.49}, {"measurement": "phenotypic distance", "setting": "E57 [6]; 3000 nM", "value": 11.6}, {"measurement": "phenotypic distance", "setting": "E21 [7]; 4.1 nM", "value": 0.463}, {"measurement": "phenotypic distance", "setting": "E21 [7]; 12.3 nM", "value": 0.798}, {"measurement": "phenotypic distance", "setting": "E21 [7]; 37 nM", "value": 0.695}, {"measurement": "phenotypic distance", "setting": "E21 [7]; 111.1 nM", "value": 0.686}, {"measurement": "phenotypic distance", "setting": "E21 [7]; 333.3 nM", "value": 0.809}, {"measurement": "phenotypic distance", "setting": "E21 [7]; 1000 nM", "value": 3.84}, {"measurement": "phenotypic distance", "setting": "E21 [7]; 3000 nM", "value": 8.57}, {"measurement": "surviving fraction", "setting": "E34 [8]; 4.1 nM", "value": 0.935}, {"measurement": "surviving fraction", "setting": "E34 [8]; 12.3 nM", "value": 0.848}, {"measurement": "surviving fraction", "setting": "E34 [8]; 37 nM", "value": 0.988}, {"measurement": "surviving fraction", "setting": "E34 [8]; 111.1 nM", "value": 0.958}, {"measurement": "surviving fraction", "setting": "E34 [8]; 333.3 nM", "value": 0.736}, {"measurement": "surviving fraction", "setting": "E34 [8]; 1000 nM", "value": 0.635}, {"measurement": "surviving fraction", "setting": "E34 [8]; 3000 nM", "value": 0.198}, {"measurement": "surviving fraction", "setting": "E13 [9]; 4.1 nM", "value": 0.898}, {"measurement": "surviving fraction", "setting": "E13 [9]; 12.3 nM", "value": 0.858}, {"measurement": "surviving fraction", "setting": "E13 [9]; 37 nM", "value": 0.898}, {"measurement": "surviving fraction", "setting": "E13 [9]; 111.1 nM", "value": 0.786}, {"measurement": "surviving fraction", "setting": "E13 [9]; 333.3 nM", "value": 0.755}, {"measurement": "surviving fraction", "setting": "E13 [9]; 1000 nM", "value": 0.643}, {"measurement": "surviving fraction", "setting": "E13 [9]; 3000 nM", "value": 0.588}, {"measurement": "surviving fraction", "setting": "E31 [10]; 4.1 nM", "value": 0.968}, {"measurement": "surviving fraction", "setting": "E31 [10]; 12.3 nM", "value": 0.879}, {"measurement": "surviving fraction", "setting": "E31 [10]; 37 nM", "value": 0.989}, {"measurement": "surviving fraction", "setting": "E31 [10]; 111.1 nM", "value": 0.819}, {"measurement": "surviving fraction", "setting": "E31 [10]; 333.3 nM", "value": 0.602}, {"measurement": "surviving fraction", "setting": "E31 [10]; 1000 nM", "value": 0.0846}, {"measurement": "surviving fraction", "setting": "E31 [10]; 3000 nM", "value": 0.0618}, {"measurement": "surviving fraction", "setting": "FT3469 [11]; 4.1 nM", "value": 1.01}, {"measurement": "surviving fraction", "setting": "FT3469 [11]; 12.3 nM", "value": 0.895}, {"measurement": "surviving fraction", "setting": "FT3469 [11]; 37 nM", "value": 0.866}, {"measurement": "surviving fraction", "setting": "FT3469 [11]; 111.1 nM", "value": 0.883}, {"measurement": "surviving fraction", "setting": "FT3469 [11]; 333.3 nM", "value": 1.04}, {"measurement": "surviving fraction", "setting": "FT3469 [11]; 1000 nM", "value": 0.483}, {"measurement": "surviving fraction", "setting": "FT3469 [11]; 3000 nM", "value": 0.394}, {"measurement": "surviving fraction", "setting": "E28 [12]; 4.1 nM", "value": 0.826}, {"measurement": "surviving fraction", "setting": "E28 [12]; 12.3 nM", "value": 1.04}, {"measurement": "surviving fraction", "setting": "E28 [12]; 37 nM", "value": 0.98}, {"measurement": "surviving fraction", "setting": "E28 [12]; 111.1 nM", "value": 1.01}, {"measurement": "surviving fraction", "setting": "E28 [12]; 333.3 nM", "value": 0.732}, {"measurement": "surviving fraction", "setting": "E28 [12]; 1000 nM", "value": 0.295}, {"measurement": "surviving fraction", "setting": "E28 [12]; 3000 nM", "value": 0.265}, {"measurement": "surviving fraction", "setting": "E57 [13]; 4.1 nM", "value": 0.996}, {"measurement": "surviving fraction", "setting": "E57 [13]; 12.3 nM", "value": 0.998}, {"measurement": "surviving fraction", "setting": "E57 [13]; 37 nM", "value": 0.968}, {"measurement": "surviving fraction", "setting": "E57 [13]; 111.1 nM", "value": 1.03}, {"measurement": "surviving fraction", "setting": "E57 [13]; 333.3 nM", "value": 0.905}, {"measurement": "surviving fraction", "setting": "E57 [13]; 1000 nM", "value": 0.513}, {"measurement": "surviving fraction", "setting": "E57 [13]; 3000 nM", "value": 0.0372}, {"measurement": "surviving fraction", "setting": "E21 [14]; 4.1 nM", "value": 0.962}, {"measurement": "surviving fraction", "setting": "E21 [14]; 12.3 nM", "value": 0.968}, {"measurement": "surviving fraction", "setting": "E21 [14]; 37 nM", "value": 0.937}, {"measurement": "surviving fraction", "setting": "E21 [14]; 111.1 nM", "value": 1.04}, {"measurement": "surviving fraction", "setting": "E21 [14]; 333.3 nM", "value": 0.873}, {"measurement": "surviving fraction", "setting": "E21 [14]; 1000 nM", "value": 0.369}, {"measurement": "surviving fraction", "setting": "E21 [14]; 3000 nM", "value": 0.0545}]}
